Where two headings read alike, the source gives them in different places.
What was measured:
[1] = system: IL-1 beta production by PBMC; assay: IL-1 beta assay, LPS-stimulated PBMC, sandwich ELISA; type: cell-based, human
Procedure: (§1) All reagents were dissolved in 0.5 ml dimethylsulfoxide (hereinafter referred as DMSO) and further diluted in culture medium before use for the following in vitro experiments. The commercially available culture medium consisted of RPMI-1640+10% foetal calf serum (FCS). Peripheral blood mononuclear cells (herein referred as PBMC), in response to stimulation by lipopolysaccharide (LPS), a gram-negative bacterial endotoxin, produce various […], in particular human TNF-alpha and II-1 beta. The inhibition of the activation of PBMC can be measured by the level of suppression of the production of TNF-alpha or IL-1 beta by PBMC in response to stimulation by LPS. Such inhibition measurement was performed as follows: PBMC were isolated from heparinized peripheral blood (Buffy coat) by density gradient centrifugation. LPS is then added to the PMBC suspension in complete medium (10^6 cells/ml) at a final concentration of 1 μg/ml. The compound to be tested was added at different dilution levels, and the cells were incubated at 37° C. for 72 hours. The supernatants were collected, and TNF-alpha or II-1 beta concentrations were measured with respectively an anti-TNF antibody or an anti-IL-1 beta antibody in a sandwich ELISA. The percent inhibition was calculated as: % inhibition=(pg/ml in sample−pg/ml min.)/(pg/ml max.−pg/ml min.)−1 wherein: min.: pg/ml in culture medium without test compound, and • max.: pg/ml in culture medium+LPS without test compound.

[2] = system: TNF-alpha production by PBMC; assay: TNF-alpha assay, LPS-stimulated PBMC, sandwich ELISA; type: cell-based, human
Procedure: as §1

[3] = system: peripheral blood mononuclear cells (PBMC); assay: Mixed lymphocyte reaction (MLR) test; type: cell-based, human
Procedure: All reagents were dissolved in 0.5 ml dimethylsulfoxide (hereinafter referred as DMSO) and further diluted in culture medium before use for the following in vitro experiments. The commercially available culture medium consisted of RPMI-1640+10% foetal calf serum (FCS). Peripheral blood mononuclear cells (hereinafter referred as PBMC) were isolated from heparinized peripheral blood by density gradient centrifugation over Lymphoprep (Nycomed, Maorstua, Norway). Allogeneic PBMC or […]-Barr Virus-transformed human B cells [commercially available under the trade name RPMI1788 (ATCC name CCL156)] which strongly express B7-1 and B7-2 antigens were used as stimulator cells after irradiation with 30 Gy. MLR was performed in triplicate wells. After 5 days incubation at 37° C., 1 μCi [^3H]-thymidine was added to each cup. After a further 16 hours incubation, cells were harvested and counted in a β-counter. Inhibition of proliferation by a compound (drug) described in some of the previous examples was counted using the formula: [formula] wherein cpm is the thymidine count per minute. TNF-Alpha and IL-1 Beta Assays

[4] = system: murine experimental allergic encephalomyelitis; assay: Murine multiple sclerosis model (experimental allergic encephalomyelitis); type: in vivo; conditions: animals treated in the murine EAE model, 20 mg/kg/day
[5] = system: murine experimental allergic encephalomyelitis; conditions: mouse, in vivo; cited from earlier work
CD3 = conditions: as disclosed in WO 00/45800; cited from earlier work
lymphocytes = conditions: as disclosed in WO 00/45800; cited from earlier work
CD 28 = conditions: as disclosed in WO 00/45800; cited from earlier work
[6] = Table 7, same conditions as example 26, read-out: IL1β IC50
[7] = Table 7, same conditions as example 26, read-out: TNFα IC50
[8] = Table 7, same conditions as example 26
[9] = Table 2, LPS 1 μg/ml, 72 hours, read-out: IL-1 IC50
[10] = Table 2, LPS 1 μg/ml, 72 hours, read-out: TNF IC50
[11] = Table 2, [3H]-thymidine incorporation after 5 days incubation

Cn1c(=O)[nH]c(=O)c2nc(-c3ccc(F)cc3)c(Cl)nc21 [Example 42, 7-chloro-6-(4-fluorophenyl)-1-methyl-lumazine]
IC50 [1, 6]: 700 nM
IC50 [2, 7]: 4700 nM
IC50 [3, 8]: 4.8 µM
sign of toxicity [4]: did not show any sign of toxicity

O=c1[nH]c(=O)n(-c2ccccc2)c2nc(Cl)c(-c3ccccc3)nc12 [Example 17, 1,6-diphenyl-7-chloro-lumazine]
IC50 [1, 9]: 200 nM
IC50 [2, 10]: 800 nM
IC50 [3, 11]: 3 µM

COc1cccc(OC)c1-c1nc2c(=O)[nH]c(=O)n(C)c2nc1Cl [Example 44, 7-chloro-(2,6-dimethoxyphenyl)-1-methyl-lumazine]
IC50 [1, 6]: 500 nM
IC50 [2, 7]: 5900 nM
IC50 [3, 8]: 4.9 µM

COc1ccc(-c2nc3c(=O)n(CCN4CCOCC4)c(=O)n(C)c3nc2Br)cc1OC [Example 82, 7-bromo-1-methyl-3-(2-morpholinoethyl)-6-(3,4dimethoxyphenyl)-lumazine]
IC50 [1, 6]: 5700 nM
IC50 [2, 7]: 10000 nM
IC50 [3, 8]: 4.6 µM

CC(C)OC(=O)CCCn1c(=O)c2nc(-c3ccccc3)c(Cl)nc2n(C)c1=O [Example 87, 7-chloro-3-(isopropyl 4-butyrate)-1-methyl-6-phenyl-lumazine]
IC50 [1, 6]: 2800 nM
IC50 [2, 7]: 6100 nM
IC50 [3, 8]: 5.4 µM

COc1ccc(-c2nc3c(=O)[nH]c(=O)n(C)c3nc2Cl)cc1 [Example 15, 1-methyl-6-(4′-methoxyphenyl)-7-chloro-lumazine]
IC50 [1, 9]: 400 nM
IC50 [2, 10]: 800 nM
IC50 [3, 11]: 3 µM

O=C1c2c(O)ccc(O)c2C(=O)c2c(NCCNCCO)ccc(NCCNCCO)c21 [mitoxantrone]
heart and kidney toxicity [5]: induces heart and kidney toxicity

7-chloro-3-(chlorophenyl)-1-methyl-lumazine [Example 46]
IC50 [1, 6]: 900 nM
IC50 [2, 7]: 4700 nM
IC50 [3, 8]: 5.7 µM

Cn1c(=O)c2nc(-c3ccccc3)c(Cl)nc2n(Cc2ccccc2)c1=O [Example 61, 1-benzyl-7-chloro-3-methyl-6-phenyl-lumazine]
IC50 [1, 6]: 500 nM
IC50 [2, 7]: 700 nM
IC50 [3, 8]: 3.7 µM

CCOC(=O)CCCn1c(=O)c2nc(-c3ccc(OC)cc3)c(Cl)nc2n(C)c1=O [Example 73, 7-chloro-3-(ethyl butyrate)-1-methyl-6-(4-methoxyphenyl)-lumazine]
IC50 [1, 6]: 500 nM
IC50 [2, 7]: 600 nM
IC50 [3, 8]: 4.9 µM

CC(=O)Nn1c(=O)c2nc(-c3ccccc3)c(Cl)nc2n(C)c1=O [Example 69, 3-acetamido-7-chloro-1-methyl-6-phenyl-lumazine]
IC50 [1, 6]: 3400 nM
IC50 [2, 7]: 5800 nM
IC50 [3, 8]: 4.5 µM

COc1ccc(-c2nc3c(nc2C(=O)c2ccccc2)c(=O)n(C)c(=O)n3C)cc1 [1,3-dimethyl-6-benzoyl-7-(4-methoxyphenyl)lumazine]
result in CD3 assay (CD3): poor results
result in Mixed Lymphocyte Reaction test (lymphocytes): poor results
result in CD 28 assay (CD 28): poor results

Cn1c(=O)n(CCN2CCOCC2)c(=O)c2nc(-c3ccccc3)c(Br)nc21 [Example 81, 7-bromo-1-methyl-3-(2-morpholinoethyl)-6-phenyl-lumazine]
IC50 [1, 6]: 5400 nM
IC50 [2, 7]: 1700 nM
IC50 [3, 8]: 4.7 µM

Cn1c(=O)[nH]c(=O)c2nc(-c3ccccc3Cl)c(Cl)nc21 [Example 45, 7-chloro-(2-chlorophenyl)-1-methyl-lumazine]
IC50 [1, 6]: 300 nM
IC50 [2, 7]: 2300 nM
IC50 [3, 8]: 3.9 µM

CCOC(=O)CCCn1c(=O)c2nc(-c3ccccc3)c(Cl)nc2n(C)c1=O [Example 55, 7-chloro-3-(ethyl butyrate)-1-methyl-6-phenyl-lumazine]
IC50 [1, 6]: 600 nM
IC50 [2, 7]: 500 nM
IC50 [3, 8]: 4.9 µM

Cn1c(=O)[nH]c(=O)c2nc(-c3ccc(C#N)cc3)c(Cl)nc21 [Example 48, 7-chloro6-(4-cyanophenyl)-1-methyl-lumazine]
IC50 [1, 6]: 400 nM
IC50 [2, 7]: 2500 nM
IC50 [3, 8]: 4.3 µM

COc1ccc(-c2nc3c(=O)[nH]c(=O)n(C)c3nc2Br)cc1 [Example 51, 7-bromo-6-(4-methoxyphenyl)-1-methyl-lumazine]
IC50 [1, 6]: 5700 nM
IC50 [2, 7]: 4600 nM
IC50 [3, 8]: 3.6 µM

COc1ccc(-c2nc3c(=O)n(C)c(=O)n(C)c3nc2Cl)cc1 [Example 76, 7-chloro-1,3-dimethyl-6-(4-methoxyphenyl)-lumazine]
IC50 [1, 6]: 600 nM
IC50 [2, 7]: 600 nM
IC50 [3, 8]: 4.5 µM

COc1ccc(-c2nc3c(=O)[nH]c(=O)n(C)c3nc2Br)cc1OC [Example 50, 7-bromo-6-(3,4-dimethoxyphenyl)-1-methyl-lumazine]
IC50 [1, 6]: 600 nM
IC50 [2, 7]: 1000 nM
IC50 [3, 8]: 4 µM

COc1ccc(-c2nc3c(=O)[nH]c(=O)n(C)c3nc2Cl)cc1 [Example 40, 7-chloro-6-(4-methoxyphenyl)-1-methyl-lumazine]
IC50 [1, 6]: 600 nM
IC50 [2, 7]: 800 nM
IC50 [3, 8]: 3.3 µM

Cn1c(=O)n(CCCC(=O)O)c(=O)c2nc(-c3ccccc3)c(Cl)nc21 [Example 85, 7-chloro-3-(n-butyric acid)-1-methyl-6-phenyl-lumazine]
IC50 [1, 6]: 3900 nM
IC50 [2, 7]: 6100 nM
IC50 [3, 8]: 5 µM

COc1ccc(-c2nc3c(=O)[nH]c(=O)n(C)c3nc2Cl)cc1OC [Example 41, 7-chloro-6-(3,4-dimethoxyphenyl)-1-methyl-lumazine]
IC50 [1, 6]: 700 nM
IC50 [2, 7]: 1700 nM
IC50 [3, 8]: 5.1 µM

COc1ccc(-c2nc3c(=O)n(CCO)c(=O)n(C)c3nc2Cl)cc1OC [Example 64, 7-chloro-6-(3,4-dimethoxyphenyl)-3-(2-hydroxyethyl)-1-methyl-lumazine]
IC50 [1, 6]: 500 nM
IC50 [2, 7]: 700 nM
IC50 [3, 8]: 5.7 µM

Cn1c(=O)n(CCc2ccccc2)c(=O)c2nc(-c3ccccc3)c(Cl)nc21 [Example 58, 7-chloro-3-(2-phenylethyl)-1-methyl-6-phenyl-lumazine]
IC50 [1, 6]: 500 nM
IC50 [2, 7]: 5500 nM
IC50 [3, 8]: 5.6 µM

Cn1c(=O)c2nc(-c3ccccc3)c(Cl)nc2n(CCO)c1=O [Example 62, 7-chloro-1-(2-hydroxyethyl)-3-methyl-6-phenyl-lumazine]
IC50 [1, 6]: 600 nM
IC50 [2, 7]: 600 nM
IC50 [3, 8]: 2.5 µM

COc1cccc(-c2nc3c(=O)[nH]c(=O)n(C)c3nc2Cl)c1 [Example 43, 7-chloro-6-(3-methoxyphenyl)-1-methyl-lumazine]
IC50 [1, 6]: 2000 nM
IC50 [2, 7]: 3700 nM
IC50 [3, 8]: 4.9 µM
